In ChEMBL document CHEMBL1152043, “Interphenylene phenyl oxazoles: novel, potent thromboxane receptor antagonists” (Bioorg Med Chem Lett, 1992):

How the values were obtained:
Homo sapiens [1] = organism: Homo sapiens; assay: Tested for inhibition of platelet aggregation induced by U-46,619 (U-IPA) in human platelet rich plasma; format: functional; details: read-out: I50
Homo sapiens [2] = organism: Homo sapiens; assay: Tested for inhibition of platelet aggregation induced by arachidonic acid (AAIPA) in human platelet rich plasma; format: functional; details: read-out: I50
Thromboxane A2 receptor = biological target: T1, Thromboxane A2 receptor (Homo sapiens, UniProt P21731); assay: Dissociation constant was determined from radioligand binding studies in human platelet membranes using Thromboxane A2 receptor radioligand [3H]-SQ 29,548.; format: cell membranes
T1 sequence (P21731 whole entry): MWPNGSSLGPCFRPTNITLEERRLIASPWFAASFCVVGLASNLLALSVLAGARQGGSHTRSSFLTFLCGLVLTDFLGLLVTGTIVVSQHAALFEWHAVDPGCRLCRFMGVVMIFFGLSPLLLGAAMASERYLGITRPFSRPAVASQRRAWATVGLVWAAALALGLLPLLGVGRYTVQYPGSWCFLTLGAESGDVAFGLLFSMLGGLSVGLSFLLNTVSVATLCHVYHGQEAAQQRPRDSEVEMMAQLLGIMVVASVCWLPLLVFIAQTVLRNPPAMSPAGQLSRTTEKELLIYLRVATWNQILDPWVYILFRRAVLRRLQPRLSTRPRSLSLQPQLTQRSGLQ

SMILES | IC50 (Homo sapiens [1]) [nM] | IC50 (Homo sapiens [2]) [nM] | Kd (Thromboxane A2 receptor) [nM]
O=C(O)CCc1cccc(Cc2ccccc2-c2nc(C(=O)NCCCCC3CCCCC3)co2)c1 | 2000 | 470 | –
O=C(O)CCCc1ccccc1Cc1ccccc1-c1nc(C(=O)NCCCCC2CCCCC2)co1 | 630 | 58 | –
O=C(O)Cc1ccccc1Cc1ccccc1-c1nc(C(=O)NCCCCC2CCCCC2)co1 | 330000 | 67000 | –
O=C(O)CCc1ccccc1Cc1ccccc1-c1nc(C(=O)NCCCCC2CCCCC2)co1 | 110 | 31 | 19
O=C(O)Cc1cccc(Cc2ccccc2-c2nc(C(=O)NCCCCC3CCCCC3)co2)c1 | 6000 | 2000 | –
